For one assay, the system named is Blood T cells. Description: Correlative analysis of blood T cells in Phase I trial of TP0903 (NCT02729298). In kind it is in vivo, patients with solid tumors. From the text: FIG. 20. Multiparametric flow cytometric analysis of peripheral blood samples obtained before and after TP0903 treatment in patients with advanced solid tumors. A. Representative CD4^+CD25^+Foxp3^+ regulatory T cells (Treg) (upper right quadrants) at baseline (left) and after treatment (right). Data were pooled from three independent experiments with peripheral blood mononuclear cells from three donors. B. Representative flow plot of CD4^+ and CCR6^− negative cells.
The preclinical findings were validated in a correlative analyses of Phase I clinical trial of TP0903 for patients with solid tumors (NCT02729298). Blood T cells from 3 patients were isolated and analyzed before and a week after treatment with TP0903. […] These findings are further investigated in a Phase I clinical trial of TP0903 in relapsed/refractory CLL (NCT03572634).

Another assay concerns Effector T cells (Teff). Description: Effector T cell expansion (anti-CD3/CD28 beads, IL-2). In kind it is cell-based, human. To be noted: anti-CD3/CD28 beads + 400 U/ml IL-2; day 5. As to the method:
(§1) FIGS. 19A-F. A. Inhibitory receptors expression in naïve T cells after TCR activation with CD3 stimulation in the increasing dose of TP0903. Naïve T cells were incubated with anti CD3/CD28 beads at a 1 to 3 ratio in the presence of TP0903. At day 3, T cells were stained with PD-1, TIM-3, LAG-3, and ICOS. […] Teff cells were isolated by negative selection using Human T Cell Isolation Kit. Tregs were isolated by negative selection using the human CD4^+CD127^lowCD25^+ Treg isolation kit. Teff and Treg were stimulated with anti CD3/CD28 beads and 400 U/ml of IL-2. At day 5, total T cells were evaluated via CountBright quantification. C. CART19 cytokine assay in the presence TP0903. UTDs or CART19 were incubated with Jeko in the presence of TP-0903 at a 1 to 1 ratio. Supernatant was harvested and analyzed by 32-plex Luminex array after 3 days. D. Inhibitory receptors expression in CART19 cells in the presence TP0903. UTDs or CART19 were incubated with Jeko at a 1 to 1 E/T ratio in the presence of TP0903. At day 5, T cells were stained with PD-1 (left), LAG-3 (right), and TIM-3. […] Cell killing was assessed by luminescence at 24 hours. […]
(§2) FIG. 21A-E. TP0903 modulates naïve T cells function upon stimulation of PMA/Ionomycin in vitro. […] At day 5, total T cells were evaluated via CountBright quantification.

Assay [1] relates to regulatory T cells (Treg). Description: Regulatory T cell expansion (anti-CD3/CD28 beads, IL-2). In kind it is cell-based, human. The protocol: as §1, §2
Assay [2] relates to Naïve T cells. The assay is described as follows: Inhibitory receptor expression in stimulated naïve T cells. In kind it is cell-based. To be noted: PMA/Ionomycin. As to the method:
as §1, §2

Assay [3] concerns Naïve T cells. The assay is described as follows: Naïve T cell degranulation assay and cytokine production. In kind it is cell-based. To be noted: PMA/Ionomycin. The protocol: FIG. 21A-E. TP0903 modulates naïve T cells function upon stimulation of PMA/Ionomycin in vitro. A. Naïve T cell proliferation assay in the presence of TP0903. Naïve T cells were stimulated with 5 ng/ml of PMA and 0.1 μg/ml of Ionomycin in the absence or in the increasing dose of TP0903 (10-65 nM) for 3 days. […] B. At the end of the expansion on day 3, T cells were stained with inhibitory receptors. […] C. Naïve T cell degranulation assay and cytokine production in the presence of TP0903. Naïve T cells were stimulated with 50 ng/ml of PMA and 1 μg/ml of Ionomycin for 4 hours in the presence of increasing doses of TP0903 (10-65 nM). […] D. Western blot analysis of p-LCK and GATA-3 inhibition by TP0903 in naïve T cells. Naïve T cells were stimulated with 5 ng/ml of PMA and 0.1 ug/ml of Ionomycin in the absence (DMSO) or in the increasing dose of TP0903 (10-65 nM) for 24 hours. […] was used as loading control. E. TP0903 specifically reduces regulatory T cells (Treg). Effector T cells (Teff) were isolated by negative selection using RoboSep™ Human T Cell Isolation Kit (Stemcell Technologies). Tregs were isolated by negative selection using the human CD4^+CD127^lowCD25^+ Treg isolation kit (Stemcell Technologies). Teff and Treg were stimulated with anti-CD3/CD28 beads and 400 U/ml of IL-2. At day 5, total T cells were evaluated via CountBright quantification.

[4] abbreviates: 3 patients, before vs a week after treatment.
[5] abbreviates: CD4+ CCR6− cells, after TP0903 treatment.

Regarding `CN1CCN(Cc2ccc(Nc3ncc(Cl)c(Nc4ccccc4S(=O)(=O)N(C)C)n3)cc2)CC1` [TP0903], in the assay with Blood T cells (setting [4]), the Th phenotype entry is “polarization to a Th1 phenotype”, the Tregs entry is “significant reduction” and the inhibitory receptors entry was “reduction”. In the assay with Blood T cells (setting [5]), the “CXCR3+CCR4+ (double positive) fraction” value is recorded as “increase” and the “CXCR3−CCR4+ fraction (Th2)” value is on record as “Remarked reduction”. Moreover, the Teff expansion result in the assay with Effector T cells (Teff) is listed as “not interfered”. Moreover, the Treg expansion entry in assay [1] (anti-CD3/CD28 beads + 400 U/ml IL-2, day 5) is recorded as “specifically reduced”. Further, the “Treg versus effector T cells” value in assay [1] (treated with TP0903 for 3 days) is “preferential reduction”. Further, the “inhibitory receptors (PD-1, LAG-3, TIM-3, and ICOS)” value in the assay with Naïve T cells [2] (day 3, high dose TP0903) is reported as “significantly downregulated”. The inhibitory receptors entry in the assay with Naïve T cells [2] (low dose TP0903) was “significant reduction”. Moreover, the IL-4 result with Naïve T cells [3] (4 hours, increasing dose of TP0903 (10-65 nM)) was “significant inhibition”. Besides, the “cytokine production (Th1 / Th2 cytokines)” value with Naïve T cells [3] (low dose TP0903) is “favorably altered through the promotion of Th1 and reduction of Th2 cytokines”.

The record behind these values is patent publication US20210145830A1, “MATERIALS AND METHODS FOR TREATING CANCER” (Mayo Foundation for Medical Education and Research, priority 2018, published 2021).
